# Entries after “also recorded” stand apart in the source; their conditions may differ.
# Key:
# [1] = test system: HCT116 p53^+/+ cells; test: sensitization to etoposide and doxorubicin, SRB assay, HCT116 p53^+/+; type: cell-based, human
# Description: FIG. 5 illustrates that SLMP53-1 sensitizes colon carcinoma tumor cells with wt p53 (HCT116 p53^+/+) to the effects of etoposide and doxorubicin. HCT116 p53^+/+ cells were treated for 48 hours with increasing concentrations of etoposide (0.38 to 3.00 μM) or doxorubicin (9.38 to 75.0 nM) in the presence of a very low concentration (between GI5 to GI10; 4 μM) of SLMP53-1 or DMSO only. The effect of the compounds on cell growth was analyzed following 48 hours incubation, using the sulforhodamine B (SRB) assay. Results are mean±SEM of three to four independent experiments.
# It was also investigated if SLMP53-1 increased the sensitivity of HCT116 p53^+/+ cells to the effects of various concentrations of the conventional chemotherapeutic drugs, etoposide (0.38 to 3.00 μM) and doxorubicin (9.38 to 75 nM). For that, a low concentration of SLMP53-1 (approximately the GI5 to GI10 concentration; 4 μM; without significant anti-proliferative effect on tumor cells) was used.
# [2] = test system: HCT116 p53^−/−; test: Western blot of p53-target proteins, PARP cleavage, HCT116 p53^−/−; type: cell-based, human; conditions: 15.5 μM
# Description: FIG. 2 illustrates that SLMP53-1 increases the levels of proteins encoded by p53 target genes (MDM2, p21, PUMA and BAX), and leads to PARP cleavage in colon carcinoma cells with wt p53 (HCT116 p53^+/+), but not in colon carcinoma cells without wt p53 (HCT116 p53^−/−). Western blot analysis was performed for human colon carcinoma cells after 16 (B, D, E) and 24 (A, C, F) hours treatment with 15.5 μM of SLMP53-1, 135 nM doxorubicin (DOXO; positive control) or DMSO only. The protein expression levels were evaluated by quantification of Western Blot band intensity (with Bio-Profile Bio-1D++ software) using GAPDH as loading control.
# [3] = test system: MDA-MB-231 cells; test: apoptosis by flow cytometry (FITC-Annexin V and propidium iodide), MDA-MB-231; type: cell-based, human; conditions: GI50, 24 hours
# Description: Apoptosis was analyzed by flow cytometry using FITC-Annexin V and propidium iodide. The effect of compounds was analyzed after 24 hours treatment using the concentration of GI50. Histograms represent one of two independent experiments; quantification of cells in apoptosis represents the mean±S.E.M. of two independent experiments.
# [4] = test system: HCT116 p53^−/− tumors; test: xenograft mouse model, HCT116 p53^−/− tumors; type: in vivo, BALB/c mice; conditions: four intraperitoneal injections of 50 mg/kg, preliminary
# Description: FIG. 10 illustrates the antitumor activity of SLMP53-1 in vivo. BALB/c mice, 4-6 weeks old, were implanted subcutaneous xenografts using 1.5×10^6 HCT116 p53^+/+ or HCT116 p53^−/− cells. The treatment was initiated when palpable tumors were established (14 days after the cells were injected), and consisted in 4 intraperitoneal injections (2× per week) of vehicle (control) or 50 mg/kg of SLMP53-1. Xenografts were measured during 24 days. Relative tumor volumes were plotted for control and treated groups by dividing the average tumor volume for each data point by average starting tumor volume.
# Currently, the toxicity and antitumor activity of SLMP53-1 are under study in vivo using xenograft mouse models. […] Because p53-null tumors were not suppressed, it was confirmed that SLMP53-1 inhibited the tumor growth in a wt p53-dependent manner.
smiles,measurement,setting,value
C[C@]12OC[C@H](Cc3c[nH]c4ccccc34)N1C(=O)c1ccccc12 [SLMP53-1],decrease of tumor cell growth,"[1]; 9.38 nM doxorubicin in the presence of 4 μM of SLMP53-1, HCT116 p53^+/+",15%
same,etoposide/doxorubicin-induced growth inhibition,"[1]; 4 μM SLMP53-1, etoposide 0.75 and 3.00 μM, doxorubicin 9.38, 37.5 and 75 nM, 48 hours",increased
same,PARP cleavage,[2],did not induce PARP cleavage
same,"expression levels of MDM2, p21, PUMA and Bax",[2],did not interfere
same,apoptosis,[3],induces late apoptosis; also recorded: apoptotic cell death
same,tumor growth,[4],without apparent effects

# From US9732091B2, “Tryptophanol-derived oxazoloisoindolinones: small-molecule P53 activators” (UNIVERSIDADE DO PORTO, priority 2013, dated 2017)
